Data as given in patent US11026426B2, “Oxadiazole and phenol derivatives as antibacterial and/or herbicidal agents” (NORTHERN ILLINOIS RESEARCH FOUNDATION, priority 2017, dated 2021).
Read-outs that look alike come from different tables or passages of the source.

Tests used:
Corynebacterium xerosis [1] = experiment: Antibacterial preliminary screening CX; format: cell-based; conditions: score 0-3; note: key: 0 represents no inhibition; 3 is comparable to commercial antibiotic control
AtIspF = AtIspF (Arabidopsis thaliana, UniProt Q9CAK8); experiment: University of Hamburg photometric enzymatic inhibition assay AtIspF; format: biochemical
Experimental: (§1) Compounds were subjected to a photometric enzymatic assay to test for inhibition of the plant enzymes Arabidopsis thaliana IspD and IspF, and IspE from Lycopersicon esculentum.
The IspF assay mixture conditions were as follows: 100 mM Tris hydrochloride at pH 8.0 with 10 mM MgCl2, 1 mM dithiothreitol, 2.5 mM potassium phosphoenol pyruvate, 2 mM ATP, 1 mM of 4-diphosphocytidyl-2C methylerythritol 2-phosphate, 460 μM NADH, 1.1% (v/v) DMSO, 0.5 U CMP kinase, 2.4 mU IspF, 1 U lactate dehydrogenase, 1 U pyruvate kinase in 180 μL of solution. Solutions were incubated at 27° C. and monitored photometrically.

Klebsiella pneumonia [2] = experiment: Antibacterial preliminary screening KP; format: cell-based; conditions: score 0-3; note: key: 0 represents no inhibition; 3 is comparable to commercial antibiotic control
LeIspE = LeIspE (Solanum lycopersicum, UniProt P93841); experiment: University of Hamburg photometric enzymatic inhibition assay LeIspE; format: biochemical, Lycopersicon esculentum
Experimental: as §1
The IspE assay conditions were very similar to the IspD assay in which the assay mixture was composed of 100 mM Tris hydrochloride at pH 8.0 with 10 mM MgCl2, 1 mM dithiothreitol, 2.5 mM potassium phosphoenol pyruvate, 2 mM ATP, 1 mM of 4-Diphosphocytidyl-2-C-methylerythritol, 460 μM NADH, 1.1% (v/v) DMSO, 2.4 mU IspE, 1 U lactate dehydrogenase, 1 U pyruvate kinase in 180 μL of solution. Solutions were incubated at 27° C. and monitored photometrically.

[3] = tested on: Burkholderia thailandensis; format: cell-based; conditions: preliminary screening, score 0-3
Mycobacterium smegmatis [4] = experiment: Antibacterial preliminary screening MS; format: cell-based; conditions: score 0-3; note: key: 0 represents no inhibition; 3 is comparable to commercial antibiotic control
Bacillus cereus [5] = experiment: Antibacterial preliminary screening BC; format: cell-based; conditions: score 0-3; note: key: 0 represents no inhibition; 3 is comparable to commercial antibiotic control
Escherichia coli [6] = experiment: Antibacterial preliminary screening EC; format: cell-based; conditions: score 0-3; note: key: 0 represents no inhibition; 3 is comparable to commercial antibiotic control
[7] = tested on: Corynebacterium pseudodiphtheriae; experiment: Antibacterial preliminary screening CP; format: cell-based; conditions: score 0-3;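 note: 0 is no inhibition and 3 matches the commercial antibiotic control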
AtIspD = AtIspD (Arabidopsis thaliana, UniProt P69834); experiment: University of Hamburg photometric enzymatic inhibition assay AtIspD; format: biochemical
Experimental: as §1
The procedure for AtIspD enzymatic inhibition assay, was performed by making an assay mixture of 100 mM Tris hydrochloride at pH 8.0 with 10 mM MgCl2, 1 mM dithiothreitol, 2.5 mM potassium phosphoenol pyruvate, 2.1 mM CTP, 2 mM ATP, 1 mM of (2R,3S)-2,3-dihydroxy-4-oxopentyl phosphate, 460 μM NADH, 1.1% (v/v) DMSO, 0.4 U IspE, 1 U lactate dehydrogenase, 1 U pyruvate kinase and 2.4 mU IspD in 180 μL of solution. Solutions were incubated at 27° C. and monitored photometrically. By preparing the assay mixture with a large excess of IspE compared to IspD, any inhibition of IspE by the test inhibitor would be insignificant compared to IspD and therefore the rate of the reaction is determined by IspD activity.

Pseudomonas aeruginosa [8] = experiment: Antibacterial preliminary screening PA; format: cell-based; conditions: score 0-3; note: key: 0 represents no inhibition; 3 is comparable to commercial antibiotic control
Micrococcus luteus [9] = experiment: Antibacterial preliminary screening ML; format: cell-based; conditions: score 0-3; note: key: 0 represents no inhibition; 3 is comparable to commercial antibiotic control
Pseudomonas aeruginosa [10] = experiment: Antibacterial assay zone of inhibition Pa; format: cell-based
Bacillus cereus [11] = experiment: Antibacterial assay zone of inhibition Bc; format: cell-based
Micrococcus luteus [12] = experiment: Antibacterial assay zone of inhibition Ml; format: cell-based
Corynebacterium xerosis [13] = experiment: Antibacterial assay zone of inhibition Cx; format: cell-based
[14] = tested on: Corynebacterium pseudodiphtheriae; experiment: Antibacterial assay zone of inhibition Cp; format: cell-based
Klebsiella pneumonia [15] = experiment: Antibacterial assay zone of inhibition Kp; format: cell-based
Mycobacterium smegmatis [16] = experiment: Antibacterial assay zone of inhibition Ms; format: cell-based
[17] = tested on: Burkholderia thailandensis; format: cell-based
Escherichia coli [18] = experiment: Antibacterial assay zone of inhibition Ec; format: cell-based

Chain of AtIspD (P69834 62-302): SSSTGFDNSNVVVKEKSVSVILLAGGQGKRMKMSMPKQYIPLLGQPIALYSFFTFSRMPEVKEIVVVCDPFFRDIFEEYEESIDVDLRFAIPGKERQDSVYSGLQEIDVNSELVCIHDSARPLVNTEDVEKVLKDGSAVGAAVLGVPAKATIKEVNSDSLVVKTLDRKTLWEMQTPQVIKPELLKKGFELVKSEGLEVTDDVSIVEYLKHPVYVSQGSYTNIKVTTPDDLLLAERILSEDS
Chain of LeIspE (P93841 89-401): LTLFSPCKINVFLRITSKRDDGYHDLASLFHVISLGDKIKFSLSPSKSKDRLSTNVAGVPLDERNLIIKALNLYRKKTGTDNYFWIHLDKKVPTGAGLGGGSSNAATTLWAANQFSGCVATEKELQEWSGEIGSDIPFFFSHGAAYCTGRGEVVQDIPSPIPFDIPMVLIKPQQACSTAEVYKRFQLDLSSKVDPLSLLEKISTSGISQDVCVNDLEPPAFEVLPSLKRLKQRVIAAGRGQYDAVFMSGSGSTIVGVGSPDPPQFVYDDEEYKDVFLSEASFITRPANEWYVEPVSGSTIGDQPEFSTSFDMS
Chain of AtIspF (Q9CAK8 53-231): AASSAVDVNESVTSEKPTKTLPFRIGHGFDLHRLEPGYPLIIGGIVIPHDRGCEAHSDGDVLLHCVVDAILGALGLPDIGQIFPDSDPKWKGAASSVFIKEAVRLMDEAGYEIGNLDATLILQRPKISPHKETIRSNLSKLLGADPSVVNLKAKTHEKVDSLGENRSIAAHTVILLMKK

Row | Structure (SMILES) | CX score (Corynebacterium xerosis [1]) | IC50 (AtIspF) [µM] | KP score (Klebsiella pneumonia [2]) | IC50 (LeIspE) [µM] | BT score [3] | MS score (Mycobacterium smegmatis [4]) | BC score (Bacillus cereus [5]) | melting point [°C] | EC score (Escherichia coli [6]) | CP score [7] | IC50 (AtIspD) [µM] | PA score (Pseudomonas aeruginosa [8]) | ML score (Micrococcus luteus [9]) | Antibacterial Pa zone of inhibition (Pseudomonas aeruginosa [10]; 0.1 mM) [millimeters] | Antibacterial Pa zone of inhibition (Pseudomonas aeruginosa [10]; 0.5 mM) [millimeters] | Antibacterial Pa zone of inhibition (Pseudomonas aeruginosa [10]; 1 mM) [millimeters] | Antibacterial Bc zone of inhibition (Bacillus cereus [11]; 0.1 mM) [millimeters] | Antibacterial Bc zone of inhibition (Bacillus cereus [11]; 0.5 mM) [millimeters] | Antibacterial Bc zone of inhibition (Bacillus cereus [11]; 1 mM) [millimeters] | Antibacterial Ml zone of inhibition (Micrococcus luteus [12]; 0.1 mM) [millimeters] | other results
1 | COCc1nnc(-c2cc3ccccc3[nH]2)o1 [HGN-212, 2-(1H-indol-2-yl)-5-(methoxymethyl)-1,3,4-oxadiazole] | 0 | > 1000 | 0 | > 1000 | 0 | 0 | 0 | 152 to 156 | 0 | 0 | > 1000 | 0 | 0 | – | – | – | – | – | – | – | –
2 | c1ccc2[nH]c(-c3nnc(C4CCC4)o3)cc2c1 [HGN-251, 2-cyclobutyl-5-(1H-indol-2-yl)-1,3,4-oxadiazole] | 0 | > 1000 | 0 | > 1000 | 0 | 0 | 0 | 169 to 173 | 0 | 0 | > 1000 | 0 | 0 | – | – | – | – | – | – | – | –
3 | Clc1ccc(OCc2nnc(-c3nc4ccccc4s3)o2)cc1 [HGN-826] | – | – | – | – | – | – | – | – | – | – | – | – | – | 0 | 0 | 0 | 0 | 0 | 12 | 0 | Antibacterial Ml zone of inhibition (Micrococcus luteus [12]; 0.5 mM): 0 millimeters; Antibacterial Ml zone of inhibition (Micrococcus luteus [12]; 1 mM): 0 millimeters; Antibacterial Cx zone of inhibition (Corynebacterium xerosis [13]; 0.1 mM): 0 millimeters; Antibacterial Cx zone of inhibition (Corynebacterium xerosis [13]; 0.5 mM): 0 millimeters; Antibacterial Cx zone of inhibition (Corynebacterium xerosis [13]; 1 mM): 0 millimeters; Antibacterial Cp zone of inhibition ([14]; 0.1 mM): 0 millimeters; Antibacterial Cp zone of inhibition ([14]; 0.5 mM): 0 millimeters; Antibacterial Cp zone of inhibition ([14]; 1 mM): 0 millimeters; Antibacterial Kp zone of inhibition (Klebsiella pneumonia [15]; 0.1 mM): 0 millimeters; Antibacterial Kp zone of inhibition (Klebsiella pneumonia [15]; 0.5 mM): 0 millimeters; Antibacterial Kp zone of inhibition (Klebsiella pneumonia [15]; 1 mM): 0 millimeters; Antibacterial Ms zone of inhibition (Mycobacterium smegmatis [16]; 0.1 mM): 0 millimeters; Antibacterial Ms zone of inhibition (Mycobacterium smegmatis [16]; 0.5 mM): 13 millimeters; Antibacterial Ms zone of inhibition (Mycobacterium smegmatis [16]; 1 mM): 20 millimeters; Antibacterial Bt zone of inhibition ([17]; 0.1 mM): 0 millimeters; Antibacterial Bt zone of inhibition ([17]; 0.5 mM): 0 millimeters; Antibacterial Bt zone of inhibition ([17]; 1 mM): 0 millimeters; Antibacterial Ec zone of inhibition (Escherichia coli [18]; 0.1 mM): 0 millimeters; Antibacterial Ec zone of inhibition (Escherichia coli [18]; 0.5 mM): 0 millimeters; Antibacterial Ec zone of inhibition (Escherichia coli [18]; 1 mM): 0 millimeters
4 | c1ccc(OCc2nnc(-c3cc4ccccc4[nH]3)o2)cc1 [HGN-811] | – | – | – | – | – | – | – | – | – | – | – | – | – | 0 | 0 | 0 | 0 | 12.5 | 16 | 0 | Antibacterial Ml zone of inhibition (Micrococcus luteus [12]; 0.5 mM): 0 millimeters; Antibacterial Ml zone of inhibition (Micrococcus luteus [12]; 1 mM): 0 millimeters; Antibacterial Cx zone of inhibition (Corynebacterium xerosis [13]; 0.1 mM): 0 millimeters; Antibacterial Cx zone of inhibition (Corynebacterium xerosis [13]; 0.5 mM): 0 millimeters; Antibacterial Cx zone of inhibition (Corynebacterium xerosis [13]; 1 mM): 0 millimeters; Antibacterial Cp zone of inhibition ([14]; 0.1 mM): 0 millimeters; Antibacterial Cp zone of inhibition ([14]; 0.5 mM): 0 millimeters; Antibacterial Cp zone of inhibition ([14]; 1 mM): 0 millimeters; Antibacterial Kp zone of inhibition (Klebsiella pneumonia [15]; 0.1 mM): 0 millimeters; Antibacterial Kp zone of inhibition (Klebsiella pneumonia [15]; 0.5 mM): 0 millimeters; Antibacterial Kp zone of inhibition (Klebsiella pneumonia [15]; 1 mM): 0 millimeters; Antibacterial Ms zone of inhibition (Mycobacterium smegmatis [16]; 0.1 mM): 0 millimeters; Antibacterial Ms zone of inhibition (Mycobacterium smegmatis [16]; 0.5 mM): 0 millimeters; Antibacterial Ms zone of inhibition (Mycobacterium smegmatis [16]; 1 mM): 0 millimeters; Antibacterial Bt zone of inhibition [17]: 0 8 12 millimeters; Antibacterial Ec zone of inhibition (Escherichia coli [18]; 0.1 mM): 0 millimeters; Antibacterial Ec zone of inhibition (Escherichia coli [18]; 0.5 mM): 0 millimeters; Antibacterial Ec zone of inhibition (Escherichia coli [18]; 1 mM): 0 millimeters
